Among the data in ChEMBL document CHEMBL1126580, “Enantiospecific syntheses of alpha-(fluoromethyl)tryptophan analogues: interactions with tryptophan hydroxylase and aromatic L-amino acid decarboxylase” (J Med Chem, 1993) are Ki values, retold here.

For this assay, the target named is T1, Aromatic-L-amino-acid decarboxylase (Mus musculus, UniProt O88533).
T1 sequence (O88533 whole entry): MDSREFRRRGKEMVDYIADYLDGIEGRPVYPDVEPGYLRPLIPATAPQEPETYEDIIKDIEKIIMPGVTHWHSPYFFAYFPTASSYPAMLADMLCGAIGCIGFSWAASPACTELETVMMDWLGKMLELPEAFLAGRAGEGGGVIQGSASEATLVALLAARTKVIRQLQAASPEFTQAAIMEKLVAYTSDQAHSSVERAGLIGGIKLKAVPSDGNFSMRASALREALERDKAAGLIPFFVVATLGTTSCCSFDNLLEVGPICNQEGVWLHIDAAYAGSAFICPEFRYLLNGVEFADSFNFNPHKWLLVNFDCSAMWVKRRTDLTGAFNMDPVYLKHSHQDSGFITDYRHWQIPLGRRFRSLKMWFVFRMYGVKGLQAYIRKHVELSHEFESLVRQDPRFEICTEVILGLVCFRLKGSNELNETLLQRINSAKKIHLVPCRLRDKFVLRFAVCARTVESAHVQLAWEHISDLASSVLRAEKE
In words: Dissociation constant (KI) was evaluated as inhibitor of murine liver aromatic L-amino acid decarboxylase (AADC).

The structures appear in SMILES notation.

`N[C@@](CF)(Cc1c[nH]c2ccc(O)cc12)C(=O)O` yielded a Ki of 24.3 µM.

By Ki is commonly meant the dissociation constant of the complex between target and ligand, obtained from inhibition or displacement.
